Assay results reported in ChEMBL document CHEMBL1147425, “Structure-activity relationships of non-imidazole H(3) receptor ligands. Part 3: 5-Substituted 3-phenyl-1,2,4-oxadiazoles as potent antagonists” (Bioorg Med Chem Lett, 2004).

Assays:
Histamine H3 receptor [1] = target: Histamine H3 receptor (Rattus norvegicus, UniProt Q9QYN8); assay: Binding affinity for rat histamine H3 receptor on rat cortical cells
Histamine H3 receptor [2] = target: Histamine H3 receptor (Homo sapiens, UniProt Q9Y5N1); assay: Binding affinity for human histamine H3 receptor on human colon cells; format: cell-based
Histamine H3 receptor (Homo sapiens, UniProt Q9Y5N1), sequence (Q9Y5N1 whole entry): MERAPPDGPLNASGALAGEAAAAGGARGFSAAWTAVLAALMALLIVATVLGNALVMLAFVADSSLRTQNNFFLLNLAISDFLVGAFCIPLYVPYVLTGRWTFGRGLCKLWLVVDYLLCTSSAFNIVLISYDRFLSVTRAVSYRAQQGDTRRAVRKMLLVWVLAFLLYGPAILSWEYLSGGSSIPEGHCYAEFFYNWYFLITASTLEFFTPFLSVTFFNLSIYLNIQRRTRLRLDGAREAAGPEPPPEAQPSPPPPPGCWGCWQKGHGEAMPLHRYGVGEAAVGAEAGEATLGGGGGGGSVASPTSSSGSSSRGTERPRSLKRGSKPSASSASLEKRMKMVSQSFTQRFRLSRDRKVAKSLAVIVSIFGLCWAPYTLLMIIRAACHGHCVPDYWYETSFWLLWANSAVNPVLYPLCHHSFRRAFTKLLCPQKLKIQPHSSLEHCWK

Histamine H3 receptor (Rattus norvegicus, UniProt Q9QYN8), sequence (Q9QYN8 whole entry): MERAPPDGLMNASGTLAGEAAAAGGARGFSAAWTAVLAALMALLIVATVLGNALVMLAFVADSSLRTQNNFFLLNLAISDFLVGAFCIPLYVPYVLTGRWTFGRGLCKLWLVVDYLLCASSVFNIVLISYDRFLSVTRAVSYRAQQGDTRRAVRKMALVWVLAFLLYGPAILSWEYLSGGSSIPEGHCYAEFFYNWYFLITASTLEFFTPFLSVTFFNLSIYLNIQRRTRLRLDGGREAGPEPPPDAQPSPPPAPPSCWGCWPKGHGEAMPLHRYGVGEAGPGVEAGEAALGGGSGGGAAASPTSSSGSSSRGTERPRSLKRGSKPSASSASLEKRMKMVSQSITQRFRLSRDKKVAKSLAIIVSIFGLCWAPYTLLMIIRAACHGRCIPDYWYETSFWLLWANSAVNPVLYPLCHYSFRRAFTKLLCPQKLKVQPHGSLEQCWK

| Ki (Histamine H3 receptor [1]) | Ki (Histamine H3 receptor [2]) | SMILES |
| --- | --- | --- |
| 2.6 nM | 21 nM | C[C@@H](NC(=O)c1ccco1)C(=O)N1CCCN(CCCOc2ccc(-c3noc(CC4CCCCC4)n3)c(F)c2)CC1 |
| 1.1 nM | 64 nM | C[C@@H](NC(=O)c1ccco1)C(=O)N1CCN(CCCOc2ccc(-c3noc(C4CC4)n3)c(F)c2)CC1 |
| 2.1 nM | 46 nM | CC(C)c1nc(-c2ccc(OCCCN3CCCN(C(=O)[C@@H](C)NC(=O)c4ccco4)CC3)cc2F)no1 |
| 8.2 nM | 140 nM | C[C@H](NC(=O)OC(C)(C)C)c1nc(-c2ccc(OCCCN3CCCN(C(=O)[C@@H](C)NC(=O)c4ccco4)CC3)cc2F)no1 |
| 9.8 nM | 170 nM | CC(C)C(NC(=O)OC(C)(C)C)c1nc(-c2ccc(OCCCN3CCCN(C(=O)[C@@H](C)NC(=O)c4ccco4)CC3)cc2F)no1 (some centres undefined) |
| 28 nM | 520 nM | C[C@@H](NC(=O)c1ccco1)C(=O)N1CCCN(CCCOc2ccc(-c3noc([C@@H](C)NC(=O)OC(C)(C)C)n3)c(F)c2)CC1 |
| 6.2 nM | 160 nM | C[C@@H](NC(=O)c1ccco1)C(=O)N1CCCN(CCCOc2ccc(-c3noc(-c4cccs4)n3)c(F)c2)CC1 |
| 1.4 nM | 17 nM | Cc1ccc(C(=O)N[C@H](C)C(=O)N2CCCN(CCCOc3ccc(-c4noc(CC5CCCC5)n4)c(F)c3)CC2)cc1 |
| 7 nM | 70 nM | C[C@@H](NC(=O)C1CCCC1)C(=O)N1CCN(CCCOc2ccc(-c3noc(-c4ccccc4)n3)c(F)c2)CC1 |
| 4.7 nM | 31 nM | Cc1cccc(C(=O)N[C@H](C)C(=O)N2CCN(CCCOc3ccc(-c4noc(CC5CCCC5)n4)c(F)c3)CC2)c1 |
|  | 12 nM | C[C@@H](NC(=O)c1ccc(C#N)cc1)C(=O)N1CCCN(CCCOc2ccc(-c3noc(CC4CCCC4)n3)c(F)c2)CC1 |
| 2 nM | 36 nM | C[C@@H](NC(=O)C(C)(C)C)C(=O)N1CCCN(CCCOc2ccc(-c3noc(CC4CCCC4)n3)c(F)c2)CC1 |
| 31 nM | 140 nM | C[C@@H](NC(=O)c1ccc(Cl)c(Cl)c1)C(=O)N1CCCN(CCCOc2ccc(-c3noc(CC4CCCC4)n3)c(F)c2)CC1 |
| 1.5 nM | 42 nM | C[C@@H](NC(=O)c1ccco1)C(=O)N1CCCN(CCCOc2ccc(-c3noc(C4CC4)n3)c(F)c2)CC1 |
| 0.86 nM | 15 nM | C[C@@H](NC(=O)c1ccco1)C(=O)N1CCCN(CCCOc2ccc(-c3noc(C4CCCC4)n3)c(F)c2)CC1 |
| 2.3 nM | 34 nM | CCC(CC)c1nc(-c2ccc(OCCCN3CCCN(C(=O)[C@@H](C)NC(=O)c4ccco4)CC3)cc2F)no1 |
| 2.4 nM | 19 nM | C[C@@H](NC(=O)c1ccco1)C(=O)N1CCCN(CCCOc2ccc(-c3noc(C4CCCCC4)n3)c(F)c2)CC1 |
|  | 120 nM | CCc1nc(-c2ccc(OCCCN3CCCN(C(=O)[C@@H](C)NC(=O)c4ccco4)CC3)cc2F)no1 |
| 2.6 nM | 49 nM | C[C@@H](NC(=O)c1ccco1)C(=O)N1CCCN(CCCOc2ccc(-c3noc(-c4ccsc4)n3)c(F)c2)CC1 |

| Ki (Histamine H3 receptor [1]) | Ki (Histamine H3 receptor [2]) | SMILES |
| --- | --- | --- |
| 11 nM | 520 nM | C[C@@H](NC(=O)c1ccco1)C(=O)N1CCCN(CCCOc2ccc(-c3noc(-c4ccncc4)n3)c(F)c2)CC1 |
| 8.9 nM | 200 nM | CC(=O)N[C@H](C)C(=O)N1CCN(CCCOc2ccc(-c3noc(CC4CCCC4)n3)c(F)c2)CC1 |
| 1.4 nM | 18 nM | CCCCC(=O)N[C@H](C)C(=O)N1CCCN(CCCOc2ccc(-c3noc(CC4CCCC4)n3)c(F)c2)CC1 |
| 2.4 nM | 40 nM | C[C@@H](NC(=O)c1ccco1)C(=O)N1CCCN(CCCOc2ccc(-c3noc(CC(C)(C)C)n3)c(F)c2)CC1 |
| 5.2 nM | 31 nM | C[C@@H](NC(=O)c1ccc(Cl)cc1)C(=O)N1CCCN(CCCOc2ccc(-c3noc(CC4CCCC4)n3)c(F)c2)CC1 |
| 1.5 nM | 17 nM | C[C@@H](NC(=O)c1ccc(F)cc1)C(=O)N1CCN(CCCOc2ccc(-c3noc(CC4CCCC4)n3)c(F)c2)CC1 |
| 6.9 nM | 49 nM | C[C@@H](NC(=O)C1CCCCC1)C(=O)N1CCN(CCCOc2ccc(-c3noc(-c4ccccc4)n3)c(F)c2)CC1 |
| 2 nM | 40 nM | CC(=O)N[C@H](C)C(=O)N1CCCN(CCCOc2ccc(-c3noc(CC4CCCC4)n3)c(F)c2)CC1 |
| 1.3 nM | 16 nM | C[C@@H](NC(=O)c1ccc(O)cc1)C(=O)N1CCN(CCCOc2ccc(-c3noc(CC4CCCC4)n3)c(F)c2)CC1 |
| 0.83 nM | 9.3 nM | C[C@@H](NC(=O)c1ccco1)C(=O)N1CCCN(CCCOc2ccc(-c3noc(CC4CCCC4)n3)c(F)c2)CC1 |
| 1.1 nM | 9.8 nM | COc1ccc(C(=O)N[C@H](C)C(=O)N2CCCN(CCCOc3ccc(-c4noc(CC5CCCC5)n4)c(F)c3)CC2)cc1 |
|  | 8.6 nM | C[C@@H](NC(=O)c1ccccc1Cl)C(=O)N1CCN(CCCOc2ccc(-c3noc(CC4CCCC4)n3)c(F)c2)CC1 |
| 1.3 nM | 14 nM | CC(C)C(=O)N[C@H](C)C(=O)N1CCCN(CCCOc2ccc(-c3noc(CC4CCCC4)n3)c(F)c2)CC1 |
| 1.2 nM | 14 nM | C[C@@H](NC(=O)c1ccc(F)cc1)C(=O)N1CCCN(CCCOc2ccc(-c3noc(CC4CCCC4)n3)c(F)c2)CC1 |
| 6.9 nM | 190 nM | C[C@@H](NC(=O)c1ccco1)C(=O)N1CCCN(CCCOc2ccc(-c3noc(-c4cccnc4)n3)c(F)c2)CC1 |
| 4.9 nM | 74 nM | C[C@@H](NC(=O)CC(C)(C)C)C(=O)N1CCCN(CCCOc2ccc(-c3noc(CC4CCCC4)n3)c(F)c2)CC1 |
| 5 nM | 170 nM | C[C@@H](NC(=O)c1ccco1)C(=O)N1CCCN(CCCOc2ccc(-c3noc(-c4ccco4)n3)c(F)c2)CC1 |
| 0.94 nM | 7.5 nM | C[C@@H](NC(=O)c1ccco1)C(=O)N1CCCN(CCCOc2ccc(-c3noc(CCc4ccccc4)n3)c(F)c2)CC1 |
|  | 43 nM | C[C@@H](NC(=O)c1ccco1)C(=O)N1CCN(CCCOc2ccc(-c3noc(-c4ccccc4)n3)c(F)c2)CC1 (stereo in doubt; 13p) |

Further lines, the molecule ahead of its results:

| SMILES | Ki (Histamine H3 receptor [1]) | Ki (Histamine H3 receptor [2]) |
| --- | --- | --- |
| C[C@@H](NC(=O)c1ccno1)C(=O)N1CCN(CCCOc2ccc(-c3noc(-c4ccccc4)n3)c(F)c2)CC1 |  | 86 nM |
| C[C@@H](NC(=O)c1ccccc1)C(=O)N1CCN(CCCOc2ccc(-c3noc(-c4ccccc4)n3)c(F)c2)CC1 | 4.6 nM | 39 nM |
| COc1ccccc1C(=O)N[C@H](C)C(=O)N1CCN(CCCOc2ccc(-c3noc(CC4CCCC4)n3)c(F)c2)CC1 | 7 nM | 54 nM |
| COc1cccc(C(=O)N[C@H](C)C(=O)N2CCN(CCCOc3ccc(-c4noc(CC5CCCC5)n4)c(F)c3)CC2)c1 | 3.6 nM | 34 nM |
| CCC(=O)N[C@H](C)C(=O)N1CCN(CCCOc2ccc(-c3noc(CC4CCCC4)n3)c(F)c2)CC1 | 7.2 nM | 170 nM |
| C[C@@H](NC(=O)[C@@H]1CCCO1)C(=O)N1CCN(CCCOc2ccc(-c3noc(-c4ccccc4)n3)c(F)c2)CC1 |  | 80 nM |
| Cc1ccc(C)c(C(=O)N[C@H](C)C(=O)N2CCN(CCCOc3ccc(-c4noc(CC5CCCC5)n4)c(F)c3)CC2)c1 | 6.6 nM | 75 nM |
| C[C@@H](NC(=O)c1cccnc1)C(=O)N1CCN(CCCOc2ccc(-c3noc(-c4ccccc4)n3)c(F)c2)CC1 |  | 27 nM |
| C[C@@H](NC(=O)CCN1CCOCC1)C(=O)N1CCN(CCCOc2ccc(-c3noc(-c4ccccc4)n3)c(F)c2)CC1 |  | 88 nM |
| CC(C)C(=O)N[C@H](C)C(=O)N1CCN(CCCOc2ccc(-c3noc(-c4ccccc4)n3)c(F)c2)CC1 | 14 nM | 110 nM |
| CC(C)CC(=O)N[C@H](C)C(=O)N1CCN(CCCOc2ccc(-c3noc(-c4ccccc4)n3)c(F)c2)CC1 |  | 56 nM |
| CCCCC(=O)N[C@H](C)C(=O)N1CCN(CCCOc2ccc(-c3noc(CC4CCCC4)n3)c(F)c2)CC1 | 2.6 nM | 79 nM |
| C[C@@H](N)C(=O)N1CCN(CCCOc2ccc(-c3noc(C4CC4)n3)c(F)c2)CC1 | 3.1 nM | 560 nM |
| C[C@@H](NC(=O)CCN1CCOCC1)C(=O)N1CCN(CCCOc2ccc(-c3noc(CC4CCCC4)n3)c(F)c2)CC1 | 1.1 nM | 37 nM |
| C[C@@H](N)C(=O)N1CCN(CCCOc2ccc(C(=O)C3CC3)cc2)CC1 |  | 760 nM |
| C[C@@H](NC(=O)c1ccc(Cl)c(Cl)c1)C(=O)N1CCN(CCCOc2ccc(-c3noc(CC4CCCC4)n3)c(F)c2)CC1 | 1.8 nM | 15 nM |
| C[C@@H](NC(=O)[C@H]1CCCO1)C(=O)N1CCN(CCCOc2ccc(-c3noc(-c4ccccc4)n3)c(F)c2)CC1 | 4.2 nM | 92 nM |
| C[C@@H](NC(=O)c1ccsc1)C(=O)N1CCN(CCCOc2ccc(-c3noc(-c4ccccc4)n3)c(F)c2)CC1 | 4.2 nM | 28 nM |
| C[C@@H](NC(=O)c1cccc(C#N)c1)C(=O)N1CCN(CCCOc2ccc(-c3noc(CC4CCCC4)n3)c(F)c2)CC1 | 1.5 nM | 35 nM |
| C[C@@H](NC(=O)c1ccc(C#N)cc1)C(=O)N1CCN(CCCOc2ccc(-c3noc(-c4ccccc4)n3)c(F)c2)CC1 | 2.6 nM | 20 nM |
| C[C@@H](NC(=O)c1cnccn1)C(=O)N1CCN(CCCOc2ccc(-c3noc(-c4ccccc4)n3)c(F)c2)CC1 | 1.7 nM | 29 nM |
| C[C@@H](NC(=O)c1cccc(C(F)(F)F)c1)C(=O)N1CCN(CCCOc2ccc(-c3noc(CC4CCCC4)n3)c(F)c2)CC1 | 10 nM | 87 nM |
| COc1ccc(C(=O)N[C@H](C)C(=O)N2CCN(CCCOc3ccc(-c4noc(CC5CCCC5)n4)c(F)c3)CC2)cc1OC | 2.5 nM | 24 nM |
| C[C@@H](NC(=O)CN1CCOCC1)C(=O)N1CCN(CCCOc2ccc(-c3noc(-c4ccccc4)n3)c(F)c2)CC1 | 8.2 nM | 92 nM |
| COc1ccc(C(=O)N[C@H](C)C(=O)N2CCN(CCCOc3ccc(-c4noc(CC5CCCC5)n4)c(F)c3)CC2)cc1 |  | 11 nM |
| CC(C)CC(=O)N[C@H](C)C(=O)N1CCN(CCCOc2ccc(-c3noc(CC4CCCC4)n3)c(F)c2)CC1 | 5 nM | 110 nM |
| C[C@@H](NC(=O)c1cccs1)C(=O)N1CCN(CCCOc2ccc(-c3noc(-c4ccccc4)n3)c(F)c2)CC1 |  | 40 nM |
| CCCCCC(=O)c1ccc(OCCCN2CCN(C(=O)OCC)CC2)cc1 | 1 nM |  |
